Laboratory results: article PMC8888134, “Characterization of UDP-glycosyltransferase family members reveals how major flavonoid glycoside accumulates in the roots of Scutellaria baicalensis” (BMC Genomics, 2022)

Columns and labels:
Test in all cases: HPLC product quantification, Eadie-Hofstee plot
Type in all cases: biochemical, Scutellaria baicalensis
Conditions in all cases: UDP-Glc as donor; 100 mM Tris-HCl pH 7.0, 37 °C, 10 min; baicalein 0.5-200 μM
SbUGT3 = system: T1, SbUGT3
T1 construct: full-length ORF (RT-PCR) in pYesdest17, E. coli Rosetta (DE3), Ni-NTA purified
Text: HPLC product quantification, Eadie-Hofstee plot on SbUGT3

SbUGT2 = system: T2, SbUGT2
T2 construct: full-length ORF (RT-PCR) in pYesdest17, E. coli Rosetta (DE3), Ni-NTA purified
Text: HPLC product quantification, Eadie-Hofstee plot on SbUGT2

SbUGT1 = system: T3, SbUGT1
T3 construct: full-length ORF (de novo synthesized) in pYesdest17, E. coli Rosetta (DE3), Ni-NTA purified
Text: HPLC product quantification, Eadie-Hofstee plot on SbUGT1

Km (SbUGT3): 2670 nM
Km (SbUGT2): 101 µM
Km (SbUGT1): 3.14 µM
Structure (SMILES): O=c1cc(-c2ccccc2)oc2cc(O)c(O)c(O)c12 [baicalein]
